In patent US20070299062A1 (The Procter & Gamble Company, priority 2006, published 2007):
pKi: −log10 of the molar value. Where two headings read alike, the source gives them in different places.

Legend:
MCH-1R = MCH-1R (UniProt Q99705); assay: MCH-1R competition binding assay
Protocol: In vitro binding and function assays are performed on membranes derived from cells or tissues expressing endogenous MCH1R. Competition binding assays are performed to identify high affinity compounds. Briefly, either radiolabeled or europium labeled MCH with varying concentrations of competitor compound which are incubated with membranes expressing the receptor. Rat brain membrane or cell lines, including but not limited to human Kelly neuroblastoma cells, A-431 epidermoid cells, and rat PC-12 cells are known to express endogenous MCH1R and are used in the assay. Binding is allowed to proceed until equilibrium is reached then bound labeled MCH is separated from free MCH by capturing membranes onto a filter. The filters are washed to remove loosely associated MCH and labeled MCH is quantified. Data is analyzed and IC50 and Ki are calculated to determine compound affinity.

5-HT2c receptor = biological target: T1, 5-HT2c receptor (Homo sapiens, UniProt P28335); assay: 5-HT2c receptor binding assay (3H-mesulergine competition); conditions: for Ki: 1 nM 3H-mesulergine, read-out: Ki (nM) binding data 5-HT2C
T1 construct: purchased Perkin-Elmer or Euroscreen (named only as possible suppliers)
T1 sequence (P28335 33-458): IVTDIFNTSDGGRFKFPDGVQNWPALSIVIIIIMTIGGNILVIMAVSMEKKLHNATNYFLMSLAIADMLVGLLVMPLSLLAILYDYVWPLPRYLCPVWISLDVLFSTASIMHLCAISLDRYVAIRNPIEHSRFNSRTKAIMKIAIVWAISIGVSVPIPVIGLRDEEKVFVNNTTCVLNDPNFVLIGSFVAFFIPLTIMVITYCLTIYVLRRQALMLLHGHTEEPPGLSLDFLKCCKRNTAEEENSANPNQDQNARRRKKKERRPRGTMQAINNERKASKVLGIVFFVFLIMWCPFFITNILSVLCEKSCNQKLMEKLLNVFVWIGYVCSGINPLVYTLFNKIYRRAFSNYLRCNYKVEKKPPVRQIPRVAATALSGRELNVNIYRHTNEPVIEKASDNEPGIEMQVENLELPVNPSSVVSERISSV
Protocol: MCH antagonist compounds are evaluated for binding to the serotonin 5-HT2c receptor to determine receptor selectivity. Binding activity is assessed using a competitive assay with ^3H-mesulergine (Perkin Elmer), a 5-HT2c selective ligand, on membrane containing the 5-HT2c receptor. Briefly, 1 nM ^3H-mesulergine and varying concentrations of the compound are incubated with 5-HT2c receptor membranes, following an incubation period, the membranes are washed and ^3H-mesulergine bound to membranes is measured in a liquid scintillation counter. The amount of bound ^3H-mesulergine at the varying concentration of competitor compound is used to derive the affinity (Ki) of the compound for the 5-HT2c receptor. 5-HT2c receptor containing membranes are readily available from several companies including Perkin-Elmer and Euroscreen.

| Ki (MCH-1R) [nM] | Ki (5-HT2c receptor) [nM] | Compound | pKi (5-HT2c receptor) |
| --- | --- | --- | --- |
| 34 |  | CC(=O)N1CCN(Cc2ccc3c(c2)CC[C@H](n2cnc4cc(-c5ccc(C#N)cc5)sc4c2=O)C3)CC1 [(S)-3-[6-(4-Acetylpiperazin-1-ymethyl)-1,2,3,4-tetrahydronap] [(S)-3-[6-(4-Acetylpiperazin-1-ymethyl)-1,2,3,4-tetrahydronapthalen-2-yl]-6-(4-cyanophenyl)thieno[3,2-d]pyrimidin-4(3H)-one] |  |
| 9.4 | 6360 | CC(=O)N1CCN(Cc2ccc3c(c2)CC[C@H](n2cnc4cc(-c5ccc(F)cc5)sc4c2=O)C3)CC1 [(S)-3-[6-(4-Acetylpiperazin-1-ymethyl)-1,2,3,4-tetrahydronapthalen-2-yl]-6-(4-fluorophenyl)thieno[3,2-d]pyrimidin-4(3H)-one] |  |
| 1020 | > 100000 | O=c1c2sc(-c3ccc(Cl)cc3)cc2ncn1[C@H]1CCc2cc(CN3CCS(=O)(=O)CC3)ccc2C1 [(S)-6-(4-Chlorophenyl)-3-[6-(1,1-dioxo-1λ^6-thiomorpholin-4-ylmethyl)-1,2,3,4-tetrahydronaphthalen-2-yl)thieno[3,2-d]pyrimidin-4(3H)-one] |  |
| 65 | > 100000 | CS(=O)(=O)N1CCN(Cc2ccc3c(c2)CC[C@H](n2cnc4cc(-c5ccc(Cl)cc5)sc4c2=O)C3)CC1 [(S)-6-(4-Chlorophenyl)-3-(6-((4-methylsulfonyl)piperazin-1-yl)methyl)-1,2,3,4-tetrahydronapthalen-2-yl)thieno[3,2,-d]pyrimidin-4(3H)-one] |  |
| 1930 | > 100000 | CC(=O)N1CCN(Cc2ccc3c(c2)CC[C@H](n2cnc4cc(-c5cccnc5)sc4c2=O)C3)CC1 [(S)-3-[6-(4-Acetylpiperazin-1-ymethyl)-1,2,3,4-tetrahydronapthalen-2-yl]-6-(pyridin-3-yl)thieno[3,2-d]pyrimidin-4(3H)-one] |  |
| 10.7 | > 100000 | O=c1c2sc(-c3ccc(Cl)cc3)cc2ncn1[C@H]1CCc2cc(CNC(CO)CO)ccc2C1 [6-(4-Chlorophenyl)-3-{(S)-6-[(2-hydroxy-1-hydroxymethylethylamino)methyl]-1,2,3,4-tetrahydronapthealen-2-yl}thieno[3,2-d]pyrimidin-4(3H)-one] |  |
| 270 | 1760 | CC(=O)N1CCN(Cc2ccc3c(c2)CC[C@H](n2cnc4cc(-c5cccs5)sc4c2=O)C3)CC1 [(S)-3-[6-(4-Acetylpiperazin-1-ymethyl)-1,2,3,4-tetrahydronapthalen-2-yl]-6-(thien-2-yl)thieno[3,2-d]pyrimidin-4(3H)-one] |  |
| 988 | 8090 | CC(=O)N1CCN(Cc2ccc3c(c2)CC[C@H](n2cnc4cc(-c5ccncc5)sc4c2=O)C3)CC1 [(S)-3-[6-(4-Acetylpiperazin-1-ymethyl)-1,2,3,4-tetrahydronapthalen-2-yl]-6-(pyridin-4-yl)thieno[3,2-d]pyrimidin-4(3H)-one] |  |
| 16 | > 100000 | (S)-6-(4-Chlorophenyl)-3-(6-((4-morpholinopiperidin-1-yl)methyl)-1,2,3,4-tetrhaydronapthalene-2-yl)thieno[3,2,-d]pyrimidin-4-(3H)-one |  |

More lines, now with the values behind:

| Compound | Ki (MCH-1R) [nM] | Ki (5-HT2c receptor) [nM] | pKi (5-HT2c receptor) |
| --- | --- | --- | --- |
| CN(CCS(C)(=O)=O)Cc1ccc2c(c1)CC[C@H](n1cnc3cc(-c4ccc(Cl)cc4)sc3c1=O)C2 [6-(4-Chlorophenyl)-3-((S)-6-{[2-methanesulfonylethyl)methylamino]methyl}-1,2,3,4-tetrahydronapthealen-2-yl)thieno[3,2-d]pyrimidin-4(3H)-one] | 15.8 | > 100000 |  |
| CCN(CC)Cc1ccc2c(c1)CC[C@H](n1cnc3cc(-c4ccc(Cl)cc4)sc3c1=O)C2 [(S)-6-(4-Chlorophenyl)-3-(6-diethylaminomethyl-1,2,3,4-tetrahydronaphthalen-2-yl)-4a,7a-dihydro-3H-thieno[3,2-d]pyrimidin-4-one] | 13 |  | 5.17 |
| CS(=O)(=O)N1CCN(Cc2ccc3c(c2)CC[C@H](n2cnc4cc(-c5cccs5)sc4c2=O)C3)CC1 | 122 | > 100000 |  |
| CS(=O)(=O)N1CCN(Cc2ccc3c(c2)CC[C@H](n2cnc4cc(-c5ccc(Cl)cc5Cl)sc4c2=O)C3)CC1 | 107 | > 100000 |  |
| CS(=O)(=O)N1CCN(Cc2ccc3c(c2)CC[C@H](n2cnc4cc(-c5ccoc5)sc4c2=O)C3)CC1 | 733 | > 100000 |  |
| CC(=O)N1CCN(Cc2ccc3c(c2)CC[C@H](n2cnc4cc(-c5ccc(Cl)cc5)sc4c2=O)C3)CC1 [(S)-3-(6-((4-Acetylpiperazin-1-yl)methyl)-1,2,3,4-tetrahydronapthalen-2-yl)-6-(4-chlorophenyl)thieno[3,2-d]pyrimidine-4(3H)-one] | 35 | 14600 |  |
| CC(=O)N1CCN(Cc2ccc3c(c2)CC[C@H](n2cnc4cc(-c5cccc(F)c5)sc4c2=O)C3)CC1 [(S)-3-[6-(4-Acetylpiperazin-1-ymethyl)-1,2,3,4-tetrahydronapthalen-2-yl]-6-(3-fluorophenyl)thieno[3,2-d]pyrimidin-4-(3H)one] | 17.9 | > 100000 |  |
| CS(=O)(=O)N1CCN(Cc2ccc3c(c2)CC[C@H](n2cnc4cc(-c5cccnc5)sc4c2=O)C3)CC1 | 752 | > 100000 |  |
| CS(=O)(=O)N1CCN(Cc2ccc3c(c2)CC[C@H](n2cnc4cc(-c5ccc(F)cc5F)sc4c2=O)C3)CC1 | 7.6 | > 100000 |  |
| CC(=O)N1CCN(Cc2ccc3c(c2)CC[C@H](n2cnc4cc(-c5ccc(C)cc5)sc4c2=O)C3)CC1 [(S)-3-[6-(4-Acetylpiperazin-1-ymethyl)-1,2,3,4-tetrahydronapthalen-2-yl]-6-(4-methylphenyl)thieno[3,2-d]pyrimidin-4(3H)-one] | 16.1 | 5460 |  |
| CC(=O)N1CCN(Cc2ccc3c(c2)CC[C@H](n2cnc4cc(-c5cccc(Cl)c5)sc4c2=O)C3)CC1 [(S)-3-[6-(4-Acetylpiperazin-l-ymethyl)-1,2,3,4-tetrahydronapthalen-2-yl]-6-(3-chlorophenyl)thieno[3,2-d]pyrimidin-4(3H)-one] | 70.5 | > 100000 |  |
| CNCc1ccc2c(c1)CC[C@H](n1cnc3cc(-c4ccc(Cl)cc4)sc3c1=O)C2 [6-(4-Chlorophenyl)-3-((S)-6-methylaminomethyl-1,2,3,4-tetrahydronapthealen-2-yl)thieno[3,2-d]pyrimidin-4(3H)-one] | 0.4 | 2140 |  |
| CC(=O)N1CCN(Cc2ccc3c(c2)CC[C@H](n2cnc4cc(-c5ccc(C#N)cc5)sc4c2=O)C3)CC1 [(S)-4-(3-(6-((4-acetylpiperazin-1-yl)methyl)-1,2,3,4-tetrahy] [(S)-4-(3-(6-((4-acetylpiperazin-1-yl)methyl)-1,2,3,4-tetrahydronaphthalen-2-yl)-4-oxo-3,4-dihydrothieno[3,2-d]pyrimidin-6-yl)benzonitrile] | 397 | > 100000 |  |
| CS(=O)(=O)N1CCN(Cc2ccc3c(c2)CC[C@H](n2cnc4cc(-c5ccc(F)c(F)c5)sc4c2=O)C3)CC1 | 39.3 | > 100000 |  |
| CS(=O)(=O)N1CCN(Cc2ccc3c(c2)CC[C@H](n2cnc4cc(-c5ccc(Cl)c(Cl)c5)sc4c2=O)C3)CC1 | 142 | > 100000 |  |
| CC(=O)N1CCN(Cc2ccc3c(c2)CC[C@H](n2cnc4cc(-c5ccc(C#N)cc5)sc4c2=O)C3)CC1 [(S)-3-[6-(4-Acetylpiperazin-1-ymethyl)-1,2,3,4-tetrahydronapthalen-2-yl]-6-(4-cyanophenyl)thieno[3,2-d]pyrimidin-4(3H)-one] |  | > 100000 |  |
